In general, LC50 refers to the concentration lethal to half of the exposed cells or organisms.

What all share (assay type): cell-based
In experiment [1] the test system is NCI-H460 (human lung cancer cell line). The experiment can be described thus: In vitro MTS cell viability assay (NCI-60 methodology), NCI-H460. The settings on record: NCI-H460 cells, read-out: NCI-H460 LC50. In outline: (§1)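 NCI-60 style: compound added 24 h post-plating at five 2-fold dilutions plus DMSO control, then 2 days' incubation, MTS read-out. Time-zero plate gives Tz; LC50 is the concentration where [(Ti−Tz)/Tz]×100=−50.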

Experiment [2] has as its system SW480 (colon adenocarcinoma cell line). The experiment can be described thus: In vitro MTS cell viability assay (NCI-60 methodology), SW480. The settings on record: Homo sapiens, SW480 cells, read-out: SW480 LC50. In outline: as §1
On the technique in general: Tetrazolium assays rely on reduction of a dye to a coloured formazan, in cell work by metabolically active cells.

Experiment [3] deals with Hep3B cells (hepatocellular carcinoma cell line). Description: In vitro MTS cell viability assay (NCI-60 methodology), Hep3B. Conditions: Homo sapiens, 48 h, 2 days drug incubation, 50% reduction vs time zero, read-out: Hep3B LC50. The gist of the method:
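Hep3B cells given five 2-fold dilutions of compound for 2 days, with viability by MTS measured at time zero and at end. LC50 is the concentration giving a 50% fall in viable cells relative to the start of treatment, per NCI-60 formula.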

SMILES strings stand for the structures. Where two headings read alike, the source gives them in different places.

On to `O=C(Nc1nc(-c2ccc(F)nc2)nc2c1cnn2-c1cccc(F)c1)c1ccc([N+](=O)[O-])s1` [Compound 6-90, N-(1-(3-fluorophenyl)-6-(6-fluoropyridin-3-yl)-1H-pyrazolo[3,4-d]pyrimidin-4-yl)-5-nitrothiophene-2-carboxamide], for which the figures for the CC50 in experiment [1] and in experiment [2] were 560 nM and 540 nM, respectively. The LC50 in experiment [3] (Table 6, MTS) was found to be 140 nM.
Take `N#Cc1ccc(-c2nc(NC(=O)c3ccc([N+](=O)[O-])s3)c3cnn(-c4ccccc4)c3n2)cn1` [Compound 5-33, N-(6-(6-cyanopyridin-3-yl)-1-phenyl-1H-pyrazolo[3,4-d]pyrimidin-4-yl)-5-nitrothiophene-2-carboxamide]: the CC50 was found to be 1800 nM in experiment [1] and 600 nM in experiment [2]. Besides, in experiment [3] (Table 5, MTS), the LC50 was 300 nM.
On to `COCCOc1ccc(-c2nc(NC(=O)c3ccc([N+](=O)[O-])s3)c3cnn(-c4ccc(F)cc4)c3n2)cn1` [Compound 6-135, N-(1-(4-fluorophenyl)-6-(6-(2-methoxyethoxy)pyridin-3-yl)-1H-pyrazolo[3,4-d]pyrimidin-4-yl)-5-nitrothiophene-2-carboxamide], for which the CC50 in experiment [1] amounted to 560 nM; in experiment [2] it was 690 nM. Moreover, the 50% lethal concentration (LC50) in experiment [3] (Table 6, MTS) amounted to 220 nM.
With `O=C(Nc1nc(-c2ccc(OCC(F)(F)C(F)F)nc2)nc2c1cnn2-c1ccccc1)c1ccc([N+](=O)[O-])s1` [Compound 5-56, 5-nitro-N-(1-phenyl-6-(6-(2,2,3,3-tetrafluoropropoxy)pyridin-3-yl)-1H-pyrazolo[3,4-d]pyrimidin-4-yl)thiophene-2-carboxamide], the results for the CC50 in experiment [1] and in experiment [2] were 1100 nM and 730 nM, respectively. Also, the LC50 in experiment [3] (Table 5, MTS) was found to be 400 nM.
As for `O=C(Nc1nc(-c2ccc(F)nc2)nc2c1cnn2-c1ccc(C(F)(F)F)cc1)c1ccc([N+](=O)[O-])s1` [Compound 6-54, N-(6-(6-fluoropyridin-3-yl)-1-(4-(trifluoromethyl)phenyl)-1H-pyrazolo[3,4-d]pyrimidin-4-yl)-5-nitrothiophene-2-carboxamide], the CC50 in experiment [1] worked out at 330 nM; in experiment [2], 340 nM. In addition, the 50% lethal concentration (LC50) in experiment [3] (Table 6, MTS) worked out at 130 nM.

The record behind these values is patent publication US20240150356A1, “Pyrimidine amide compounds and use thereof” (ALPHALA CO., LTD., priority 2019, published 2024).
